The test system of the assay is L1210 leukemia. As to the kind of experiment: Lymphoid Leukemia L1210, survival of tumored mice. It counts as in vivo, CD2F1 mice. The conditions noted are these: for response vs control in vivo at 37.5 mg/kg: 37.5 mg/kg i.p.; for response vs control in vivo at 200 mg/kg: 200 mg/kg i.p. How it is done: The efficacy of the compounds of this invention against the transplanted mouse tumors was evaluated in test systems currently in use at the National Cancer Institute for the detection and assessment of anticancer activity. […] J. Cancer, 17, 129-142, (1981); Venditti, J. M., Seminars in Oncology, 8 (4) (1981); Goldin, A. and J. M. Venditti, in Recent Results in Cancer Research, 70, S. K. Carter and Y. Sakurai, Eds., Springer-Verlag, Berlin/Heidelberg, 1980].
The animals used in this test were CD2 F1 mice, all males weighing a minimum of 18 g and all within a 4 g weight range at the start of the test. The test group consisted of six mice. The tumor was implanted in each of the test mice by the intraperitoneal injection of 0.1 ml of diluted ascitic fluid containing 10^5 cells drawn from a mouse with L1210 leukemia. The test compounds were suspended in hydroxypropylcellulose or saline with Tween® 80 surfactant or dissolved in saline and injected intraperitoneally, at various doses, once daily for nine consecutive days starting on day one relative to the day of tumor inoculation (day 0). The control mice received injections of saline or hydroxypropylcellulose vehicle only. The mice were weighed and survivors were recorded on a regular basis for 30 days. The median survival time and the ratio of the median survival time for the treated (T) and control (C) mice was calculated. […] Drug effectiveness was assessed on the basis of the survival time. Results were expressed as a percentage of the control survival time (Median Survival Time: T/C ×100%). The criterion for effectiveness was determined by: T/C×100≥125 percent.

Where [1] appears, read: Mus musculus, L1210, ip, 720 h, nonoptimal Q1DX9 instead of Q3DX9, read-out: L1210 Leukemia % T/C (median survival time).
The mark [2] stands for this setting: Mus musculus, L1210, ip, 720 h, 100 mg/kg i.p., read-out: L1210 Leukemia % T/C (median survival time).
Setting [3] is: Mus musculus, L1210, ip, 720 h, 25 mg/kg i.p., read-out: L1210 Leukemia % T/C (median survival time).
The mark [4] stands for this setting: Mus musculus, L1210, ip, 720 h, 50 mg/kg i.p., read-out: L1210 Leukemia % T/C (median survival time).
Setting [5] is: Mus musculus, L1210, ip, 720 h, 75 mg/kg i.p., nonoptimal Q1DX9 instead of Q3DX9, read-out: L1210 Leukemia % T/C (median survival time).
[6] abbreviates: Mus musculus, L1210, ip, 720 h, 175 mg/kg i.p., read-out: L1210 Leukemia % T/C (median survival time).
Setting [7] is: Mus musculus, L1210, ip, 720 h, read-out: L1210 Leukemia % T/C (median survival time).
[8] abbreviates: Mus musculus, L1210, ip, 720 h, 150 mg/kg i.p., read-out: L1210 Leukemia % T/C (median survival time).
[9] abbreviates: Mus musculus, L1210, ip, 720 h, 50 mg/kg i.p., nonoptimal Q1DX9 instead of Q3DX9, read-out: L1210 Leukemia % T/C (median survival time).

Read-outs that look alike come from different tables or passages of the source.

Regarding `Cc1c(-c2ccc(-c3ccccc3)cc2)nc2c(Br)cc(Br)cc2c1C(=O)O` [Example 150], under setting [1], the response vs control in vivo at 37.5 mg/kg came out at 105%.

As for `Cc1c(-c2ccc(Oc3ccc(F)cc3)cc2)nc2ccc(F)cc2c1C(=O)O` [Example 35], the “L1210 Leukemia % T/C (median survival time)” value (“L1210 Leukemia % T/C” for short) (150 mg/kg i.p.) worked out at 204%.

For the molecule `Cc1c(-c2ccc(-c3ccccc3)cc2)nc2cc(Cl)c(F)cc2c1C(=O)O` [Example 151], the “L1210 Leukemia % T/C” value (75 mg/kg i.p.) amounted to 144%.

Consider `Cc1c(-c2ccc(-c3ccc(F)cc3)cc2)nc2cc(Cl)c(F)cc2c1C(=O)O` [Example 144], for which the response vs control in vivo at 37.5 mg/kg under setting [1] is 123%.

For the molecule `Cc1c(-c2ccc(Cc3ccccc3)cc2)nc2ccc(Cl)cc2c1C(=O)O` [Example 22], under setting [2], the response vs control in vivo at 100 mg/kg was determined as 135%.

Take `Cc1c(-c2ccc(-c3ccc(Br)cc3)cc2)nc2ccc(Cl)cc2c1C(=O)O` [Example 117]: the response vs control in vivo at 25 mg/kg under setting [3] was 163%.

In the case of `O=C(O)c1cc(-c2ccc(-c3ccccc3)cc2)nc2ccc(F)cc12` [Example 123], under “Mus musculus, L1210, ip, 720 h, 21.9 mg/kg i.p., read-out: L1210 Leukemia % T/C (median survival time)”, the response vs control in vivo at 21.9 mg/kg was found to be 145%.

`Cc1c(-c2ccc(-c3ccc(Br)cc3)cc2)nc2ccc(Cl)cc2c1C(=O)O` [Example 27]: the response vs control in vivo at 50 mg/kg under setting [4] amounted to 155%.

For the molecule `Cc1cc2c(C(=O)O)c(C)c(-c3ccc(Oc4ccccc4)cc3)nc2cc1Cl` [Example 149], the response vs control in vivo at 75 mg/kg under setting [5] came to 107%.

Turning to `COc1c(-c2ccc(-c3ccc(C(F)(F)F)cc3)cc2)nc2ccc(F)cc2c1C(=O)O` [Example 32], the response vs control in vivo at 175 mg/kg under setting [6] was 153%.

Consider `Cc1c(-c2ccc(Sc3ccccc3)cc2)nc2ccc(Cl)cc2c1C(=O)O` [Example 21], for which the response vs control in vivo at 200 mg/kg under setting [7] came to 160%.

Regarding `Cc1c(-c2ccc(Oc3ccc([N+](=O)[O-])cc3)cc2)nc2ccc(F)cc2c1C(=O)O` [Example 184], the “L1210 Leukemia % T/C” value (175 mg/kg i.p.) turned out to be 153%.

In the case of `Cc1c(-c2ccc(-c3cccc(F)c3)cc2)nc2ccccc2c1C(=O)O` [Example 190], under setting [4], the response vs control in vivo at 50 mg/kg came to 195%.

In the case of `Cc1c(-c2ccc(-c3ccccc3F)cc2)nc2ccc(Cl)cc2c1C(=O)O` [Example 160], the response vs control in vivo at 25 mg/kg under setting [3] was found to be 174%.

With `Cc1c(-c2ccc(Oc3ccccc3)cc2)nc2ccc(C(F)(F)F)cc2c1C(=O)O` [Example 147], under “Mus musculus, L1210, ip, 720 h, 18 mg/kg i.p., read-out: L1210 Leukemia % T/C (median survival time)”, the response vs control in vivo at 18 mg/kg was 132%.

`Cc1ccc2c(C(=O)O)c(C)c(-c3ccc(-c4ccccc4)cc3)nc2c1` [Example 55]: under setting [8], the response vs control in vivo at 150 mg/kg was determined as 156%.

As for `Cc1ccc(-c2ccc(-c3nc4ccc(F)cc4c(C(=O)O)c3C)cc2)cc1Cl` [Example 128], the response vs control in vivo at 25 mg/kg under setting [3] was 135%.

With `Cc1c(-c2ccc(-c3ccccc3F)cc2)nc2ccc(F)cc2c1C(=O)OCCCN(C)C` [Example 199], the response vs control in vivo at 25 mg/kg under setting [3] was found to be 153%.

With `Cc1ccc2nc(-c3ccc(-c4ccccc4)cc3)c(C)c(C(=O)O)c2c1Cl` [Example 166], under setting [4], the response vs control in vivo at 50 mg/kg is 156%.

`Cc1c(-c2ccc(-c3ccccc3F)cc2)nc2ccc(F)cc2c1C(=O)OCCCN(C)C` [Example 200]: the “L1210 Leukemia % T/C” value (25 mg/kg i.p.) was found to be 140%.

With `Cc1c(-c2ccc([S+]([O-])c3ccccc3)cc2)nc2ccc(F)cc2c1C(=O)O` (stereo not shown) [Example 124], the response vs control in vivo at 360 mg/kg (Mus musculus, L1210, ip, 720 h, 360 mg/kg i.p., read-out: L1210 Leukemia % T/C (median survival time)) stood at 184%.

For the molecule `Cc1cc(-c2ccccc2)ccc1-c1nc2ccc(F)cc2c(C(=O)O)c1C` [Example 68], the response vs control in vivo at 100 mg/kg under setting [2] came out at 162%.

As for `CCC(C)c1ccc(-c2nc3ccc(F)cc3c(C(=O)O)c2C)cc1` (stereo not shown) [Example 99], under setting [9], the response vs control in vivo at 50 mg/kg stood at 101%.

`Cc1cc(-c2ccccc2)ccc1-c1nc2ccc(F)cc2c(C(=O)O)c1C` [Example 158]: the “L1210 Leukemia % T/C” value (100 mg/kg i.p.) came to 148%.

In the case of `Cc1c(-c2ccc(-c3ccc(F)cc3)cc2)nc2ccc(Cl)cc2c1C(=O)O` [Example 23], under setting [3], the response vs control in vivo at 25 mg/kg turned out to be 159%.

`CSc1ccc2nc(-c3ccc(-c4ccccc4)cc3)c(C)c(C(=O)O)c2c1` [Example 76, 2-(4-Biphenyl)-3-methyl-6-methylthio-4-quinoline carboxylic acid]: the response vs control in vivo at 200 mg/kg under setting [7] stood at 179%.

As for `Cc1c(-c2ccc([S+]([O-])c3ccccc3)cc2)nc2ccc(F)cc2c1C(=O)O` (stereo not shown) [Example 34], the response vs control in vivo at 400 mg/kg (Mus musculus, L1210, ip, 720 h, 400 mg/kg i.p., read-out: L1210 Leukemia % T/C (median survival time)) was determined as 170%.

As for `CCc1c(-c2ccc(C3CCCCC3)cc2)nc2ccc(F)cc2c1C(=O)O` [Example 100], the response vs control in vivo at 50 mg/kg under setting [9] is 103%.

`O=C(O)c1cc(-c2ccc(Oc3ccc(F)cc3)cc2)nc2ccc(F)cc12` [Example 75]: under setting [8], the response vs control in vivo at 150 mg/kg was found to be 145%.

Turning to `Cc1c(-c2ccc(SCc3ccccc3)cc2)nc2ccc(F)cc2c1C(=O)O` [Example 116], the response vs control in vivo at 75 mg/kg under setting [5] amounted to 102%.

Regarding `Cc1c(-c2ccc(-c3ccccc3)cc2)nc2cccc(Cl)c2c1C(=O)O` [Example 163], the response vs control in vivo at 43.8 mg/kg (Mus musculus, L1210, ip, 720 h, 43.8 mg/kg i.p., read-out: L1210 Leukemia % T/C (median survival time)) was determined as 180%.

In the case of `Cc1ccc(-c2ccc(-c3nc4ccc(F)cc4c(C(=O)O)c3C)cc2)cc1C` [Example 129], under setting [2], the response vs control in vivo at 100 mg/kg amounted to 154%.

Take `Cc1c(-c2ccc(-c3ccc(Br)cc3)cc2)nc2ccc(F)cc2c1C(=O)O` [Example 183]: the response vs control in vivo at 22.5 mg/kg (Mus musculus, L1210, ip, 720 h, 22.5 mg/kg i.p., read-out: L1210 Leukemia % T/C (median survival time)) stood at 208%.

Turning to `Cc1c(-c2ccc(Oc3ccccc3)cc2)nc2ccc(Cl)cc2c1C(=O)O` [Example 110], the response vs control in vivo at 25 mg/kg under setting [3] worked out at 135%.

In the case of `Cc1c(-c2ccc(-c3ccc(Cl)c(Cl)c3)cc2)nc2ccc(F)cc2c1C(=O)O` [Example 36], the response vs control in vivo at 75 mg/kg (Mus musculus, L1210, ip, 720 h, 75 mg/kg i.p., read-out: L1210 Leukemia % T/C (median survival time)) came to 185%.

In the case of `COc1c(-c2ccc(-c3ccccc3)cc2)nc2ccc(F)cc2c1C(=O)O` [Example 37], where the note is “50 mg/kg i.p.”, the “L1210 Leukemia % T/C” value is on record as 155%.

Regarding `Cc1c(-c2ccc(-c3ccccc3F)cc2)nc2ccc(F)c(Cl)c2c1C(=O)O` [Example 167], for the setting “Mus musculus, L1210, ip, 720 h, 12.5 mg/kg i.p., read-out: L1210 Leukemia % T/C (median survival time)”, the response vs control in vivo at 12.5 mg/kg was determined as 197%.

Consider `Cc1c(-c2ccc(-c3ccccc3)cc2)nc2ccc(F)cc2c1C(=O)OCCN(C)C` [Example 196], for which the response vs control in vivo at 50 mg/kg under setting [4] amounted to 205%.

As to `Cc1c(-c2ccc(Oc3ccccc3)cc2)nc2ccc(Cl)cc2c1C(=O)O` [Example 172], the response vs control in vivo at 100 mg/kg under setting [2] was 151%.

Turning to `Cc1c(-c2ccc(-c3ccc(Cl)c(Cl)c3)cc2)nc2ccc(F)cc2c1C(=O)O` [Example 126], the response vs control in vivo at 37.5 mg/kg under setting [7] is 150%.

For the molecule `Cc1c(-c2ccc(Oc3ccc([N+](=O)[O-])cc3)cc2)nc2ccc(F)cc2c1C(=O)O` [Example 86, 6-Fluoro-3-methyl-2-(4-nitrophenoxyphenyl)-4-quinolinecarboxylic acid], the response vs control in vivo at 175 mg/kg under setting [6] is 153%.

For the molecule `Cc1ccc(-c2ccc(-c3nc4ccc(F)cc4c(C(=O)O)c3C)cc2)cc1` [Example 120], under setting [2], the response vs control in vivo at 100 mg/kg was 132%.

Regarding `Cc1c(-c2ccc(-c3ccccc3)cc2)nc2ccc(Br)cc2c1C(=O)O` [Example 142], the response vs control in vivo at 37.5 mg/kg under setting [7] came out at 169%.

For `O=C(O)c1cc(-c2ccc(-c3ccccc3)cc2)nc2ccc(F)cc12` [Example 182], the response vs control in vivo at 46 mg/kg (Mus musculus, L1210, ip, 720 h, 46 mg/kg i.p., read-out: L1210 Leukemia % T/C (median survival time)) amounted to 168%.

As to `Cc1c(-c2ccc(-c3ccc(F)cc3F)cc2)nc2ccc(F)cc2c1C(=O)O` [Example 74], the response vs control in vivo at 50 mg/kg under setting [4] worked out at 104%.

Turning to `Cc1ccc(-c2ccc(-c3nc4ccc(F)c(Cl)c4c(C(=O)O)c3C)cc2)cc1` [Example 85], the “L1210 Leukemia % T/C” value (100 mg/kg i.p.) came out at 184%.

(Values after patent publication US5032597A, “Method of using phenylquinolinecarboxylic acids and derivatives for lymthoid leukemia treatment in a mammal” (priority 1987, dated 1991).)
